Assay results taken from patent US10280170B2, “Substituted 4,5,6,7-tetrahydro-pyrazolo[1,5-a]pyrazine derivatives and 5,6,7,8-tetrahydro-4H-pyrazolo[1,5-a][1,4]diazepine derivatives as Ros1 inhibitors” (Janssen Pharmaceutica NV, priority 2014, dated 2019).
Read-outs that look alike come from different tables or passages of the source.

Assays:
Ros1 enzyme = target: T1, Ros1 enzyme (Homo sapiens, UniProt P08922); assay: Ros1 enzymatic assay; assay type: biochemical; conditions: Ros1 enzymatic assay; for IC50: read-out: ROS1 pIC50 (converted)
T1 construct: 0.5 μg/ml Ros1 enzyme
Protocol: Compounds were spotted onto white 384-well Proxiplate plus plates (Perkin Elmer) to which 5 μl of enzyme mix (0.5 μg/ml Ros1 enzyme, 50 mM Tris-HCl pH7.5, 1 mM EGTA, 10 mM MgCl2, 0.01% Tween-20) and 5 μl of substrate mix (6 μg/ml IRS-Tide [American Peptide Company], 20 μM ATP, 13.33 μCi/ml ATP (adenosine 5′-triphosphate) P^33, 50 mM Tris-HCl pH7.5, 1 mM EGTA (ethylene glycol-bis(2-aminoethylether)-N,N,N′,N′-tetraacetic acid), 10 mM MgCl2, 0.01% Tween-20) were added. After incubation for 120 minutes at room temperature, 10 μl of stop reaction buffer (5 mM EDTA, 50 μM ATP, 0.1% BSA (bovine serum albumin), 0.1% Triton X-100, 50 mM Tris-HCl pH7.5, 1 mM EGTA, 10 mM MgCl2, 0.01% Tween-20) containing 2 mg/ml streptavidin coupled polystyrene imaging beads (Amersham Biosciences) was added and incubated for 15 minutes at room temperature. Plates were centrifuged for 3 minutes at 1500 rpm and signals detected in a LEADseeker imaging system (GE).

[1] = test system: Ba/F3 cells containing Ros1 wild-type protein + IL-3; assay: Ba/F3-Ros1 cell proliferation counter-screen, wild-type protein in the presence of 10 ng/ml murine IL-3; assay type: cell-based; conditions: Mus musculus, BaF3, 24 h, read-out: BaF3-ROS1 + IL3 pIC50 (converted)
Protocol: (§1) This assay was carried out with Ba/F3 cells containing three different versions of Ros1: the wild-type protein, protein with a mutation at the gatekeeper residue (L2026M), and protein with a mutation identified in a tumor from a patient that became resistant to crizotinib (Xalkori®) treatment (G2032R). Compounds were solubilized in 100% DMSO (dimethyl sulfoxide) and sprayed into polystyrene, tissue culture treated 384-well plates. A 50 μl volume of cell culture medium (phenol red free RPMI-1640, 10% FBS (fetal bovine serum), 2 mM L-Glutamine) containing 20000 Ba/F3-Ros1 cells was added to each well and the plates were placed in an incubator at 37° C. and 5% CO2. After 24 hours, 10 μl of Alamar Blue solution (0.5 mM K3Fe(CN)6, 0.5 mM K4Fe(CN)6, 0.15 mM Resazurin and 100 mM Phosphate Buffer) was added to the wells, incubated for 4 hours at 37° C. and 5% CO2 before RFU's (Relative Fluorescence Units) (ex. 540 nm., em. 590 nm.) were measured in a fluorescence plate reader.
As a counter-screen the same experiment was performed for the wild-type protein in the presence of 10 ng/ml murine IL-3.

[2] = target: T2, Ba/F3 cells containing Ros1 wild-type protein (Homo sapiens, UniProt P08922, cells depend on it, form not given); assay: Ba/F3-Ros1 cell proliferation assay, wild-type Ros1; assay type: cell-based, murine; conditions: without IL-3
T2 construct: The background only speaks of 'a number of different unrelated proteins' and names SLC34A2-ROS1 for HCC78 cells
Protocol: (§2) Ba/F3-Ros1 Cell Proliferation Assay
as §1

[3] = target: Ba/F3 cells containing Ros1 with a mutation at the gatekeeper residue (L2026M) (Homo sapiens, UniProt P08922, L2026M, cells depend on it, form not given); assay: Ba/F3-Ros1 cell proliferation assay, L2026M gatekeeper mutant; assay type: cell-based, murine; conditions: without IL-3
Protocol: as §2, §1

[4] = counter-screen, wild-type, 10 ng/ml murine IL-3

Sequence of Ba/F3 cells containing Ros1 with a mutation at the gatekeeper residue (L2026M) (P08922 whole entry L2026M, form open): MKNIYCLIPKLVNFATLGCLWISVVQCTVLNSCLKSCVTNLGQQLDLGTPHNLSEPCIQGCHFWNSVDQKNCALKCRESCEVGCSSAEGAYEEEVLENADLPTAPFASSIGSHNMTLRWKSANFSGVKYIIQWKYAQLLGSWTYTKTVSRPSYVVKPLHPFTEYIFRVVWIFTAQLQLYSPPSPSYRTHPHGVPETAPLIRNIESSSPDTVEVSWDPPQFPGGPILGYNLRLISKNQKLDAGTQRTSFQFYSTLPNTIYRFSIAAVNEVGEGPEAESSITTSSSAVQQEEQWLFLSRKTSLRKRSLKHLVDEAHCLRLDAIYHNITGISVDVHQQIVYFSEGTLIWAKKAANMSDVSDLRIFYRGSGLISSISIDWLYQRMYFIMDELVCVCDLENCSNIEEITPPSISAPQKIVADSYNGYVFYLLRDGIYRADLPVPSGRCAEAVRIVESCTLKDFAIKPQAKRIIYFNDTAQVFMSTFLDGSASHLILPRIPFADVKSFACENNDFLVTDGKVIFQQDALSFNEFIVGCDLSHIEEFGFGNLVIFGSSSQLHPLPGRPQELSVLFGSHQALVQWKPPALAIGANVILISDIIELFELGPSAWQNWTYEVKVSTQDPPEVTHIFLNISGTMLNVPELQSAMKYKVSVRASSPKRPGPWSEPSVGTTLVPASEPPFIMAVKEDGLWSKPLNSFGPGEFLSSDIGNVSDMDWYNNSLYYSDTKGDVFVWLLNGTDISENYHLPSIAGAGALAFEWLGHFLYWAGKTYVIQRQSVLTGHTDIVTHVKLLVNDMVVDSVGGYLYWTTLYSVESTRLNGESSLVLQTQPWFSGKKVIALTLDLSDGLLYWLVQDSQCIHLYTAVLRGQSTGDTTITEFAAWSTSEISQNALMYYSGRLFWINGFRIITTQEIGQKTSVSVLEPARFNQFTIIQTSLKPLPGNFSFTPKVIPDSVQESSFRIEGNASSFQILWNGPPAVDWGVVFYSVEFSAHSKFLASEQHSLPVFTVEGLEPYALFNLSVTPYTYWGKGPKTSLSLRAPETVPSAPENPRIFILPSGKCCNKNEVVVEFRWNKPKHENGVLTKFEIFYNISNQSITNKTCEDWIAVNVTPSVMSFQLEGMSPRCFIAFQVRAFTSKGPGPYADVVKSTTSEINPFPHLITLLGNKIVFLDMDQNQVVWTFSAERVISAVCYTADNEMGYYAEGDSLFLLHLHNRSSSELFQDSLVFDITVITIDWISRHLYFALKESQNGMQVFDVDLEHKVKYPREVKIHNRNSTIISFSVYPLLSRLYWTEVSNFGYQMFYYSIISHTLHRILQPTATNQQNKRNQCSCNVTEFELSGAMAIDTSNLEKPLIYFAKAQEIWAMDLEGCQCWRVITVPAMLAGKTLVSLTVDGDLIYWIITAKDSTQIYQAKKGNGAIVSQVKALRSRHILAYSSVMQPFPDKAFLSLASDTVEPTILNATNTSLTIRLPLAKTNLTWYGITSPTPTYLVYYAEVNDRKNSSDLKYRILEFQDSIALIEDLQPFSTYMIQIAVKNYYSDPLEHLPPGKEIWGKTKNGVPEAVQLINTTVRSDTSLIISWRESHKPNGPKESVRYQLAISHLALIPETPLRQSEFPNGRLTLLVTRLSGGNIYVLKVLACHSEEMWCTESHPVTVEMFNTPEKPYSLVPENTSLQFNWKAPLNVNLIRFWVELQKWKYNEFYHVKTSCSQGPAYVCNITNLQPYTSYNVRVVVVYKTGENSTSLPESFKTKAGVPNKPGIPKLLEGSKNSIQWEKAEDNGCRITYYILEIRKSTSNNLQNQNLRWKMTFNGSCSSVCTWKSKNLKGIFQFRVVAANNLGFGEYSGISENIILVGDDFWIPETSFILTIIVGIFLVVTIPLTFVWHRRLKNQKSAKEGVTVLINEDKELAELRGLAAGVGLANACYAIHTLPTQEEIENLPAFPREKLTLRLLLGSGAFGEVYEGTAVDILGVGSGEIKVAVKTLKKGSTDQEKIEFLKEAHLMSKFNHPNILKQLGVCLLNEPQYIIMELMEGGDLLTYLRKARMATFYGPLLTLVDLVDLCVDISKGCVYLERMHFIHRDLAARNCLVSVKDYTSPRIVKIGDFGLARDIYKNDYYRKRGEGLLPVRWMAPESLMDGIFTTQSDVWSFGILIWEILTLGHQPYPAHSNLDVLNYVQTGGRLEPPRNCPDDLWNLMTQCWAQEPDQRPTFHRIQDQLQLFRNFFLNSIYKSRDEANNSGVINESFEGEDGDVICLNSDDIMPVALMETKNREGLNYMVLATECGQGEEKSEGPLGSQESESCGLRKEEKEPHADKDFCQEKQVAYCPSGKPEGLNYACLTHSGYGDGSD
T2 sequence (P08922 whole entry, stated change not applied): as the sequence (P08922 whole entry L2026M, form open) above, with M2026L counted along it
T1 sequence (P08922 28-2347): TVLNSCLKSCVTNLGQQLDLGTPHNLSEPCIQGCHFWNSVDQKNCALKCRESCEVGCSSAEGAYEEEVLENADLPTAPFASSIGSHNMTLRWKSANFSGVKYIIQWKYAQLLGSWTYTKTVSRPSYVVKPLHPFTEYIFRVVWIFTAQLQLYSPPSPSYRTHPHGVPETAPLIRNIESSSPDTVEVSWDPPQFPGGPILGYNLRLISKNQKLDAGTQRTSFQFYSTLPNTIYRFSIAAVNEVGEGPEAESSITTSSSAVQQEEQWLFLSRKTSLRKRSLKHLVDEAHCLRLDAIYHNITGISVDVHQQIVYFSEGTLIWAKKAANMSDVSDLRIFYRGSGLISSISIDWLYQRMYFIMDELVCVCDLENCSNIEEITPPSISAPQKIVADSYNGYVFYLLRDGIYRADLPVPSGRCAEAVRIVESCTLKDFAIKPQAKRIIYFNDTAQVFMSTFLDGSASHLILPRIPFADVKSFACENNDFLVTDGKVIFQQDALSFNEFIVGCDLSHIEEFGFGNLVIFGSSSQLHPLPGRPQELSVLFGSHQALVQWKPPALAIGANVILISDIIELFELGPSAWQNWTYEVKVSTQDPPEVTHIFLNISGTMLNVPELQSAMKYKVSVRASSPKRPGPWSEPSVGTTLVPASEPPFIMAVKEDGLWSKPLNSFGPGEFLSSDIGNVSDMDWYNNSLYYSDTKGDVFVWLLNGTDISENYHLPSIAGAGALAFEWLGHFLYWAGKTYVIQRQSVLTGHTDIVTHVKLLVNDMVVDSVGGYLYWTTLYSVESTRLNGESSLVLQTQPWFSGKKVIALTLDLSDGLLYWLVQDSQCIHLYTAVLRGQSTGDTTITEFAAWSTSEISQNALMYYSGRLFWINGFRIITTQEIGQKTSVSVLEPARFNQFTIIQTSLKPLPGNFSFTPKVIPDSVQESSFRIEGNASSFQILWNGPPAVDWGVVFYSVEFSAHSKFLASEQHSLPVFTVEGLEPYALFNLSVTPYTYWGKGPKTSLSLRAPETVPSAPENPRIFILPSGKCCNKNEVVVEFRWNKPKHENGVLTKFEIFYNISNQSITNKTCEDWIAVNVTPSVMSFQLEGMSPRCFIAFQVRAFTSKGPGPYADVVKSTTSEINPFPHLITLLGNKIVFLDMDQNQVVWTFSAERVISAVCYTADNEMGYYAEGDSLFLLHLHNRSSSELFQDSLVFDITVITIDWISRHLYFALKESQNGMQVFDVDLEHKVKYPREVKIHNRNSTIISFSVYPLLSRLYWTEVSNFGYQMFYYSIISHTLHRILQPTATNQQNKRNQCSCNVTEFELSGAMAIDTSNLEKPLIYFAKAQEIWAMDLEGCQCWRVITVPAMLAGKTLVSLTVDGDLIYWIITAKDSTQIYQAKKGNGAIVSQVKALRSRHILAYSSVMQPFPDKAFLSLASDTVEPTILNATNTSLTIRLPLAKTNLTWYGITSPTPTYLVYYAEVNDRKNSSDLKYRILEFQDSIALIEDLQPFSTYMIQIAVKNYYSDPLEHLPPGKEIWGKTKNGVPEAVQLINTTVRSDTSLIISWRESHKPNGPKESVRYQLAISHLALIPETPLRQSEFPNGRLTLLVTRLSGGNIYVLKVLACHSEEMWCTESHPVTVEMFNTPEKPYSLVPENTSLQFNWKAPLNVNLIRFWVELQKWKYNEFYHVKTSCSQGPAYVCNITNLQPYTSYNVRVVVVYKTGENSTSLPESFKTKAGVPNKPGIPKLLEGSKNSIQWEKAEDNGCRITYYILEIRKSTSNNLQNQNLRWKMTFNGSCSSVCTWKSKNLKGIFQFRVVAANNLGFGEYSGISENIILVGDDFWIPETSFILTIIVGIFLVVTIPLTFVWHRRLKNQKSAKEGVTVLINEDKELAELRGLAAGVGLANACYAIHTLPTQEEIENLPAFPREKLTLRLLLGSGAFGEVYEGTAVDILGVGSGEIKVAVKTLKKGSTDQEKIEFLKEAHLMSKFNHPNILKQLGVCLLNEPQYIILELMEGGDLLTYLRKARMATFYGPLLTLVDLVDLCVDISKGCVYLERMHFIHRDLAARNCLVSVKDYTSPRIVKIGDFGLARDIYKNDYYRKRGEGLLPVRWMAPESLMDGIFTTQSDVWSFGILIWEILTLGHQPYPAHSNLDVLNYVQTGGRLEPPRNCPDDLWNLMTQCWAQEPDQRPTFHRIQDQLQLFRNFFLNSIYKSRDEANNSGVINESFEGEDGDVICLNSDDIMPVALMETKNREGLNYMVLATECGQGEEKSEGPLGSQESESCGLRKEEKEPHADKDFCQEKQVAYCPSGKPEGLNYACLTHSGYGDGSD

| ROS1 pIC50 (Ros1 enzyme) | Compound | IC50 (Ros1 enzyme) | melting point | CC50 [1, 4] | BaF3-ROS1-IL3 pIC50 [2] | CC50 [1] | Ba/F3 Ros1 L2026M (-IL-3) pIC50 [3] |
| --- | --- | --- | --- | --- | --- | --- | --- |
| – | COC(=O)c1ccc(COc2ccc(-c3c(-c4ccncc4)nn4c3C(=O)NCC4)cc2)cc1 [Compound 9a] | 2510 nM | 254 °C | > 10000 nM | <5 | – | – |
| – | CC(C)c1ccc(COc2ccc(-c3c(-c4ccnc(N)n4)nn4c3C(=O)NCC4)cc2)cc1 [Compound 13] | 20 nM | – | – | 7.5 | > 10000 nM | – |
| – | CC(C)c1ccc(COc2cc(F)c(-c3c(-c4ccncc4)nn4c3C(=O)NCC4)c(F)c2)cc1 [Compound 17] | 501 nM | 235 °C | – | 6.8 | > 10000 nM | – |
| – | COc1cc(OCc2ccc(C(C)C)cc2)ccc1-c1c(-c2ccncc2)nn2c1C(=O)NCC2 [Compound 34] | 316 nM | 276 °C | – | 6.6 | > 10000 nM | – |
| – | CC(C)Oc1cc(-c2c(-c3ccncc3)nn3c2C(=O)NCC3)ccc1OCc1ccc(C(C)C)cc1 [Compound 37] | 2510 nM | 206 °C | – | 5.4 | > 10000 nM | – |
| – | CC(C)c1ccc(COc2ccc(-c3c(-c4ccncc4)nn4c3C(=O)N(CCC#N)CC4)cc2)cc1 [Compound 57] | 25.1 nM | 158 °C | – | 7.7 | > 10000 nM | – |
| 7.2 | CC(C)c1ccc(COc2ccc(-c3c(-c4ccncc4)nn4c3C(=O)N(CCN)CC4)cc2)cc1 [Compound 59a] | – | – | – | 6.6 | – | – |
| – | CC(C)c1ccc(COc2ccc(-c3c(-c4ccncc4)nn4c3C(=O)N(CC(=O)O)CC4)cc2)cc1 [Compound 66] | 251 nM | – | – | 5.1 | > 10000 nM | – |
| – | COc1cc(COc2ccc(-c3c(-c4ccncc4)nn4c3C(=O)NCC4)cc2)ccc1C(C)C [Compound 80] | 126 nM | 232 °C | – | 6.9 | > 10000 nM | – |
| – | CC(C)c1ccc(COc2ccc(-c3c(-c4ccncc4)nn4c3C(=O)N(C)CC4)cc2)cc1CCO [Compound 82] | 10 nM | – | – | 7.6 | > 10000 nM | 7.3 |
| – | COCCOc1cc(COc2ccc(-c3c(-c4ccncc4)nn4c3C(=O)NCC4)cc2)ccc1C [Compound 104] | 1260 nM | 190 °C | – | 6.1 | > 10000 nM | – |
| – | CCC(C)c1ccc(COc2ccc(-c3c(-c4ccncc4)nn4c3C(=O)NCC4)cc2)cc1 (stereo not drawn) [Compound 106] | 25.1 nM | 229 °C | – | 7.5 | > 10000 nM | – |
| – | CC(C)Cc1ccc(COc2ccc(-c3c(-c4ccncc4)nn4c3C(=O)NCC4)cc2)cc1 [Compound 108] | 126 nM | 233 °C | – | 7.0 | > 10000 nM | – |
| – | CC(C)c1cccc(COc2ccc(-c3c(-c4ccncc4)nn4c3C(=O)NCC4)cc2)c1 [Compound 110] | 126 nM | 268 °C | – | 6.9 | > 10000 nM | – |
| – | COc1cccc(COc2ccc(-c3c(-c4ccncc4)nn4c3C(=O)NCC4)cc2)c1 [Compound 113] | 794 nM | 242 °C | > 10000 nM | 6.0 | – | – |
| – | CC(C)Oc1ccc(COc2ccc(-c3c(-c4ccncc4)nn4c3C(=O)NCC4)cc2)cc1 [Compound 114] | 501 nM | 252 °C | – | 6.4 | > 10000 nM | – |
| – | O=C1NCCn2nc(-c3ccncc3)c(-c3ccc(OCc4ccc(OC(F)F)cc4)cc3)c21 [Compound 118] | 158 nM | 250 °C | – | 7.1 | > 10000 nM | – |
| – | O=C1NCCn2nc(-c3ccncc3)c(-c3ccc(OCc4cccc(C(F)(F)F)c4)cc3)c21 [Compound 120] | 251 nM | 293 °C | – | 6.6 | > 10000 nM | – |

| ROS1 pIC50 (Ros1 enzyme) | Compound | IC50 (Ros1 enzyme) | melting point | CC50 [1, 4] | BaF3-ROS1-IL3 pIC50 [2] | CC50 [1] | Ba/F3 Ros1 L2026M (-IL-3) pIC50 [3] |
| --- | --- | --- | --- | --- | --- | --- | --- |
| – | N#Cc1cccc(COc2ccc(-c3c(-c4ccncc4)nn4c3C(=O)NCC4)cc2)c1 [Compound 124] | 2000 nM | 238 °C | – | 5.7 | > 10000 nM | – |
| – | CC(C)(CO)c1ccc(COc2ccc(-c3c(-c4ccncc4)nn4c3C(=O)NCC4)cc2)cc1 [Compound 125] | 316 nM | 280 °C | – | 6.7 | > 10000 nM | – |
| – | CC(CO)c1ccc(COc2ccc(-c3c(-c4ccncc4)nn4c3C(=O)NCC4)cc2)cc1 (stereo not drawn) [Compound 127] | 398 nM | 259 °C | – | 6.6 | > 10000 nM | – |
| – | NCc1cccc(COc2ccc(-c3c(-c4ccncc4)nn4c3C(=O)NCC4)cc2)c1 [Compound 133] | > 10000 nM | – | > 10000 nM | 5.6 | – | – |
| – | CC(C)c1ccc(COc2ccc(-c3c(-c4ccncc4)nn4c3CN(CC(=O)N3CCCC3)CC4)cc2)cc1 [Compound 179] | 501 nM | – | > 10000 nM | 6.4 | – | – |
| – | CC(O)C(=O)N1CCn2nc(-c3ccncc3)c(-c3ccc(OCc4ccc(C(C)C)cc4)cc3)c2C1 (stereo not drawn) [Compound 180] | 501 nM | – | > 10000 nM | 6.5 | – | – |
| – | CNCC(=O)N1CCn2nc(-c3ccncc3)c(-c3ccc(OCc4ccc(C(C)C)cc4)cc3)c2C1 [Compound 182] | 1260 nM | – | 5010 nM | 5.7 | – | – |
| – | COc1ccc(COc2ccc(-c3c(-c4ccncc4)nn4c3CNCC4)cc2)cc1 [Compound 188] | 3980 nM | – | > 10000 nM | 5.5 | – | – |
| – | CC1Cn2nc(-c3ccncc3)c(-c3ccc(OCc4ccc(C5CC5)cc4)cc3)c2CN1 (stereo not drawn) [Compound 190] | 631 nM | – | > 10000 nM | 6.1 | – | – |
| – | CC(C)c1ccc(COC2CCN(c3c(-c4ccncc4)nn4c3C(=O)NCC4)CC2)cc1 [Compound 198] | 251 nM | – | – | 6.6 | > 10000 nM | – |
| – | CC(C)c1ccc(COc2ccc(-c3c(-c4ccncc4)nn4c3C(=O)NCC4)c(F)c2)cc1CCO [Compound 204] | 6.31 nM | – | – | 7.9 | > 10000 nM | 7.8 |
| – | CC(C)c1ccc(COc2ccc(-c3c(-c4ccncc4)nn4c3C(=O)N(CCO)CC4)cn2)cc1 [Compound 212] | 39.8 nM | – | – | 7.3 | > 10000 nM | 6.8 |
| – | CC(C)c1ccc(C(Oc2ccc(-c3c(-c4ccncc4)nn4c3C(=O)NCC4)cc2)C(=O)NCCO)cc1 (stereo not drawn) [Compound 218] | 200 nM | – | – | 6.3 | > 10000 nM | – |
| – | CC(C)c1ccc(COc2ccc(-c3c(-c4ccncn4)nn4c3CN(CCO)CC4)cc2)cc1 [Compound 220] | 501 nM | – | > 10000 nM | 6.5 | – | – |
| – | CC(C)c1ccc(C2CNc3cc(-c4c(-c5ccncc5)nn5c4C(=O)NCC5)cnc3O2)cc1 (stereo not drawn) [Compound 223] | 398 nM | – | – | 6.5 | > 10000 nM | – |
| – | CC(C)c1ccc(C2CNc3cc(-c4c(-c5ccncc5)nn5c4C(=O)NCC5)ccc3O2)cc1 (stereo not drawn) [Compound 224] | 398 nM | – | > 10000 nM | 6.7 | – | – |
| – | CC(C)c1ccc(C2CNc3cc(-c4c(-c5ccncc5)nn5c4C(=O)NCC5)ccc3O2)cc1 (stereo not drawn) [Compound 225] | 316 nM | – | – | 6.7 | – | – |
